# “Also recorded” adds a separate entry of the source. Read-outs that look alike come from different tables or passages of the source.
# How the values were obtained:
# [1] = system: HIV subtype D viruses in CD4 helper T-cells (CEM-SS cell line); experiment: HIV viral load (p24 core antigen ELISA) in infected CD4 helper T-cells; type: cell-based, HIV-1
# Experimental: The following protocols were followed in this investigation: • a) Several cultures of CD4 helper T-cells (CEM-SS cell line; NIH AIDS Research and Reference Reagent Program) were infected with HIV subtype D viruses at applicable cell seeding densities and viral loads. Cells were maintained in tissue culture under standard culturing conditions. • b) The viral load in cultured cells were determined every day for 7 consecutive days after infection by measuring the p24 core antigen of HIV-1 in the supernatant culturing fluid by ELISA. This assay is based on a colour change after addition of substrate that is proportionate to the viral replication in each culture. The colour change is monitored by absorbance spectrophotometry at 450 nm. Negative control absorbance readings were used to calculate the absorbance/cut-off for each culture. • c) Determination of the optimal concentration of nanolipid-vesicle containing base formulation was done by cytotoxicity assays and cell growth curves. The cytotoxicity assay used was the standard MTT assay and spectrophotometry was once again used to determine cell viability for the CEM-SS cell line. Growth curves were used to determine the optimal concentration of base formulation for human macrophage cells (THP-1 cell line).
# [2] = system: S. Aureus and P. Aeruginosa; experiment: Zone of inhibition study of Povidone iodine; type: cell-based; conditions: formulated with the nanolipid vesicles of Preparation 2; 6.30 g Povidone iodine in 100 g; FIG. 2
# [3] = system: BCG (Bacillus of Calmette and Guerin); conditions: after a two-hour incubation; free drug
# [4] = human, in vivo
# [5] = 20° C. and 2 atm pressure; cited from earlier work
# [6] = system: melanoma cells (UCT MeI 1 cell line) incubated with fungi; conditions: 0.2%
# [7] = system: Plasmodium Falciparum drug resistant reference strain W2; experiment: Growth of malaria parasites in human erythrocyte cultures (% parasitaemia, Giemsa smears); type: cell-based
# From the text: The specific parasite investigated was the reference drug resistant strain W2 of the species Plasmodium Falciparum. Plasmodium Falciparum is the most commonly occurring as well as the most virulent malaria parasite currently known in man.
# The system used in this investigation aims to mimic the live situation as closely as possible. For that reason, the parasites were infected into fresh primary erythrocytes isolated from O+ or A+ blood donors.
# Furthermore, human serum prepared from the same donors was used as an adjuvant instead of foetal calf serum. Parasite growth was maintained by the addition of freshly prepared erythrocytes from the same donors.
# The growth of the parasites was determined by visualization of the parasite DNA on thin smears of the infected cultures. Since mature erythrocytes contain no nucleus, and therefore no DNA, the only DNA present was of parasitic origin. Only intracellular parasites were included in determining the percentage parasitaemia, as extracellular parasites are no longer viable.
# A. Culturing of Malaria Parasites: • 1. Preparation of fresh human erythrocytes • 2. Preparation of human serum from the same donor. • 3. Quality control of human serum. • 4. Infection of erythrocyte cultures with parasites. Initial infection load was 0.5% parasitaemia. • 5. Maintenance of parasite blood cultures • 6. The parasite percentage in the blood cultures was determined after 36 or 48 hours, depending on the level of infection of the freshly added erythrocytes.
# A stock solution of 10 mM chloroquine solution in a 1:250 dilution of nanolipid formulation was made by vortexing and sonication. All concurrent dilutions were from this stock.
# D Drug Delivery by MZL Nanolipid Formulations: • 1 Penetrance of nanolipid formulations in red blood cells was determined by microscopic visualization, as were the penetrance of chloroquine-carrying nanolipid formulations. • 2. […] Typically 48-well plates or 96-well plates were used. 200 ul or 100 ul total culture volumes were used respectively, of which 90% of the volume was infected erythrocyte culture. 10% volume was used for the treatment, be it chloroquine in Nanolipid formulation, chloroquine in water, or for the controls 1:250 pure Nanolipid formulation, pure culturing media or water only. • 4. All series were in duplicate.
# Parasitic DNA was visualised by Giemsa staining of thin smears. Ethidium bromide or acridine orange may be used for fluorescent staining.
# The % infection after applicable incubation periods was determined as follows: […]
# [8] = system: Plasmodium Falciparum drug resistant reference strain W2; conditions: read-out: 50% Inhibition concentration value (IC50); free Chloroquine; known value of strain W2; cited from earlier work
# M. tuberculosis H37Rv = experiment: BACTEC growth index with Ethambutol with and without MZL; type: cell-based, Mycobacterium tuberculosis; conditions: for inhibition at 0.0325 µg/mL: 0.0325 μg/ml Ethambutol; for inhibition at 0.0625 µg/mL: 0.0625 μg/ml Ethambutol; for inhibition at 0.125 µg/mL: 0.125 μg/ml Ethambutol; for inhibition at 0.25 µg/mL: 0.25 μg/ml Ethambutol; for inhibition at 0.5 µg/mL: 0.5 μg/ml Ethambutol; for inhibition at 1 µg/mL: 1.0 μg/ml Ethambutol
# [9] = Mycobacterium tuberculosis, H37RV, Minus MZL
# [10] = Mycobacterium tuberculosis, H37RV, Plus MZL
compound,measurement,setting,value
"Cc1cn([C@H]2C[C@H](N=[N+]=[N-])[C@@H](CO)O2)c(=O)[nH]c1=O [free AZT, AZT]",inhibition of viral growth and replication compared to the control,"[1]; 0.1 nM free AZT, by day 7 and 8",44%
same,AZT concentration at which viral inhibition is optimal,[1]; dilution of base-formulation 1:256,0.5 to 1 nM
Povidone iodine,inhibition of bacterial growth versus free active,[2],dramatically increased
"NC(=O)c1cnccn1 [free Pyrazinamide, Pyrazinamide]",BCG-viability,[3],68-72%
same,bioavailability versus comparator Rifafour,[4],enhanced bioavailability
[N-]=[N+]=O [Nitrous oxide],solubility in water,[5],one liter of the gas dissolves in 1.5 liters of water
"Clc1ccc(COC(Cn2ccnc2)c2ccc(Cl)cc2Cl)c(Cl)c1 (centres unmarked) [Free Miconazole, Miconazole nitrate]",presence of fungi,[6]; 4 hours incubation,fungi were still present in large numbers
same,viability / state of human melanoma cells,"[6]; 4 hours incubation with fungi, listed as free Miconazole nitrate",decline dramatically; also recorded: cells were no longer attached to the petri dish
CO[C@H]1/C=C/O[C@@]2(C)Oc3c(C)c(O)c4c(O)c(c(/C=N/N5CCN(C)CC5)c(O)c4c3C2=O)NC(=O)/C(C)=C\C=C\[C@H](C)[C@H](O)[C@@H](C)[C@@H](O)[C@@H](C)[C@H](OC(C)=O)[C@@H]1C [Rifampicin],increase of coverage by the nanolipid delivery system,[4]; female,180%
same,total average increase in bioavailability by Nanolipid delivery system,[4]; female,227%
same,Tmax,"[4]; female, po",1 h
CCN(CC)CCCC(C)Nc1ccnc2cc(Cl)ccc12 (centres unmarked) [Chloroquine],% Parasit,[7]; 1 nM chloroquine,2.67%
same,% Parasit,[7]; 5 nM chloroquine,2.33%
same,% Parasit,[7]; 10 nM chloroquine,2.96%
same,% Parasit,[7]; 25 nM chloroquine,2.84%
same,% Parasit,[7]; 50 nM chloroquine,2.7%
same,% Parasit,[7]; 75 nM chloroquine,3.33%
same,% Parasit,[7]; 100 nM chloroquine,2.81%
same,% Parasit,[7]; 200 nM chloroquine,2.87%
same,% Parasit,[7]; 300 nM chloroquine,1.8%
same,% Parasit,[7]; 500 nM chloroquine,1.5%
same,% Parasit,[7]; 1000 nM chloroquine,1.4%
same,IC50,[8],200 to 300 nM
CC[C@@H](CO)NCCN[C@@H](CC)CO [Ethambutol],inhibition maintained with MZL,"M. tuberculosis H37Rv; MZL treated, over the range of 0.03125 μg/ml-0.125 μg/ml Ethambutol",approx 50%
same,MIC,"M. tuberculosis H37Rv; Mycobacterium tuberculosis, H37RV",~1 µg/mL
same,inhibition at 0.0325 µg/mL,"M. tuberculosis H37Rv; Mycobacterium tuberculosis, H37RV, Minus MZL, read-out: % Inhibition",-21%
same,inhibition at 0.0625 µg/mL,M. tuberculosis H37Rv; [9],-16%
same,inhibition at 0.125 µg/mL,M. tuberculosis H37Rv; [9],-12%
same,inhibition at 0.25 µg/mL,M. tuberculosis H37Rv; [9],51%
same,inhibition at 0.5 µg/mL,M. tuberculosis H37Rv; [9],81%
same,inhibition at 1 µg/mL,M. tuberculosis H37Rv; [9],92%
same,inhibition at 0.0325 µg/mL,M. tuberculosis H37Rv; [10],48%
same,inhibition at 0.0625 µg/mL,M. tuberculosis H37Rv; [10],49%
same,inhibition at 0.125 µg/mL,M. tuberculosis H37Rv; [10],52%
same,inhibition at 0.25 µg/mL,M. tuberculosis H37Rv; [10],51%
same,inhibition at 0.5 µg/mL,M. tuberculosis H37Rv; [10],62%
same,inhibition at 1 µg/mL,M. tuberculosis H37Rv; [10],86%
"NNC(=O)c1ccncc1 [INH, Isoniazid]",bioavailability versus comparator Rifafour,[4],enhanced bioavailability

# Source: patent publication US8329685B1, “Enhancement of the action of anti-infective agents and of central and peripheral nervous system agents and transportation of nucleic acid substances” (priority 2001, dated 2012)
